# Earlier results, collected in publication PMC7867784 (Translational Lung Cancer Research, 2021).
# Test system: RET-rearranged NSCLC
# Settings: cited from earlier work; for response rate and PFS in NSCLC with RET rearrangement: recent clinical trials
SMILES,response rate and PFS in NSCLC with RET rearrangement,"response rate (RET-rearranged NSCLC, 7/25 cases)",median PFS (RET-rearranged NSCLC)
COc1ccc(CN2C3CC2CN(c2ccc(-c4cc(OCC(C)(C)O)cn5ncc(C#N)c45)cn2)C3)cn1 [selpercatinib],high response rate and prolonged PFS,–,–
COc1cc2nccc(Oc3ccc(NC(=O)C4(C(=O)Nc5ccc(F)cc5)CC4)cc3)c2cc1OC [cabozantinib],–,28%,5.5 months
CO[C@]1(C(=O)N[C@@H](C)c2ccc(-n3cc(F)cn3)nc2)CC[C@H](c2nc(C)cc(Nc3cc(C)[nH]n3)n2)CC1 [pralsetinib],high response rate and prolonged PFS,–,–
